# Test results as given in US20160160268A1, “AMDINOCILLIN FOR RAPID DETERMINATION OF SUSCEPTIBILITY TO BETA-LACTAM ANTIBIOTICS” (THE REGENTS OF THE UNIVERSITY OF CALIFORNIA, priority 2013, published 2016).
# Legend:
# Format in all cases: cell-based
# [1] = test system: antibiotic susceptible and resistant E. coli strains; experiment: Mature rRNA and pre-rRNA response to beta-lactam antibiotics with or without amdinocillin; conditions: for differentiation of antibiotic-susceptible from antibiotic-resistant bacteria on addition of amdinocillin to the assay: with amdinocillin
# Experimental: As a result of blocking filamentation, levels of mature rRNA and pre-rRNA decrease within 30-45 min when amdinocillin is combined with beta lactam antibiotics. […] For example, at a concentration of 32 μg/ml, cefazolin causes a drop of pre-rRNA within 30 min whether or not amdinocillin is present.
# Ampicillin-susceptible E. coli (strain EC135) was treated with ampicillin (16 μg/ml) alone, amdinocillin (1 μg/ml) alone, ampicillin plus amdinocillin, or neither. […] Effects on pre-rRNA were more pronounced than those on mature rRNA.
# Ceftriaxone-susceptible E. coli (strain EC103) was treated with ceftriaxone ([…]) alone, amdinocillin ([…]) alone, ceftriaxone plus amdinocillin, or neither. Ceftriaxone-mediated effects on mature rRNA and pre-rRNA occurred 60 min faster with amdinocillin than without amdinocillin.
# Cefazolin-susceptible E. coli (strain EC103) was treated with amdinocillin (1 μg/ml) plus cefazolin at concentrations ranging from 0-32 μg/ml.
# Graphs illustrating the effects of beta-lactam antibiotics plus amdinocillin on antibiotic susceptible and resistant bacteria can be found in FIGS. 14A-14D. Antibiotic susceptible and resistant bacteria were treated with amdinocillin (1 μg/ml) plus various beta lactam antibiotics including 16 μg/ml cefazolin, 4 μg/ml ceftriaxone, 32 μg/ml piperacillin plus 4 μg/ml tazobactam, and 2 μg/ml imipenem. Differential effects on pre-rRNA of susceptible from resistant bacteria were evident within 30-90 min.
# [2] = test system: susceptible strain of E. coli; experiment: Response of pre-rRNA to cefazolin in log phase culture; conditions: log phase of growth
# [3] = test system: E. coli (strain EC103) cells; experiment: E. coli cell length (filamentation) measurement
# Experimental: The lengths of ampicillin-susceptible E. coli (strain EC103) cells were measured after treatment for 30 minutes with no antibiotics, ampicillin, or ampicillin plus amdinocillin. Digital photomicrographs of representative cells treated with no antibiotics (16A), ampicillin (16B), and ampicillin plus amdinocillin (16C) are shown.
# [4] = test system: E. coli clinical urine isolate EC103; experiment: Electrochemical sensor assay of mature rRNA and pre-rRNA after adding an antibiotic to a growing culture; conditions: for effect on mature rRNA level: 25 μg/ml Chloramphenicol or 16 μg/ml Gentamicin added at 150 or 210 minutes; for effect on pre-rRNA level: 25 μg/ml Rifampicin, 25 μg/ml Chloramphenicol, 4 μg/ml Ciprofloxacin or 16 μg/ml Gentamicin added at 150 or 210 minutes
# Experimental: Overnight cultures of EC103 were prepared by adding 5 μl of EC103 glycerol stock to 5 ml of MH broth with ampicillin and incubated at 37° C. overnight with shaking. […] Every 30 min, including at 0 min and the overnight culture itself, a 1 ml sample was taken for OD600 measurement and 10-fold serial dilutions (100 μl into 900 μl) were performed in room temperature MH broth. Cell density was determined by plating serial dilutions in triplicate. At each time point, culture samples were transferred to an ice water bath or centrifuged immediately at 4° C. for 3 min at 14,000 rpm.
# Electrochemical detection.
# Each sensor of the array consisted of a 2.5 mm diameter central working electrode, surrounded by an Au counter electrode and an Au pseudo-reference electrode. […] Washing steps were carried out after each application of reagents by applying a stream of deionized H2O to the sensor surface for approximately 2-3 sec followed by 5 sec of drying under a stream of nitrogen. Prior to addition of the first reagent, the bare gold chips were dried as described above. To functionalize the working sensor surface, a fresh mixture of 0.05 μM thiolated capture probe and 300 μM 1,6-hexanedithiol (96%, Sigma, St. Louis, Mo.) was prepared in 10 mM Tris-HCl, 1 mM EDTA and 0.3 M NaCl (pH 8.0) and allowed to stand at room temperature for 10 min. Aliquots of 6 μl of this mixture were cast over each Au working electrode in the 16-sensor array and incubated overnight at 4° C. in a humidified chamber.
# [5] = test system: lawn of E. coli (strains EC135, EC96, EC103, NDM-1); experiment: Kirby-Bauer disc diffusion antibiotic-susceptibility test
# Text: FIGS. 15A-15F present digital photomicrographs showing results of Kirby-Bauer disc diffusion antibiotic-susceptibility tests. 6 mm diameter antibiotic discs were placed on agar plates seeded with a lawn of E. coli that were Ampicillin susceptible (strain EC135), Ampicillin resistant (strain EC96), Cefazolin susceptible (strain EC103), Cefazolin resistant (strain EC96), Imipenem susceptible (strain EC103) or Imipenem resistant (strain NDM-1). In each panel the antibiotic disc is on the left and the amdinocillin disc is on the right. Images were obtained after 20 hours of incubation at 37° C.
compound,measurement,setting,value
Cc1nnc(SCC2=C(C(=O)O)N3C(=O)[C@@H](NC(=O)Cn4cnnn4)[C@H]3SC2)s1 [cefazolin],dependence of the amdinocillin effect on the antibiotic concentration,[1],dependent on the antibiotic concentration
same,concentration dependence of fall in pre-rRNA levels,"[1]; cefazolin 0-32 μg/ml plus amdinocillin 1 μg/ml, strain EC103",fell more quickly at higher cefazolin concentrations
same,effect on pre-rRNA,[1]; cefazolin 4 μg/ml,does not cause a drop of pre-rRNA unless amdinocillin is present
same,time within which pre-rRNA drops,"[1]; cefazolin 32 μg/ml, whether or not amdinocillin is present",≤ 30 min
same,differentiation of antibiotic-susceptible from antibiotic-resistant bacteria on addition of amdinocillin to the assay,[1],enables rapid differentiation
same,drop in amount of pre-rRNA compared to culture without antibiotic,[2],one-log drop
same,time within which the pre-rRNA drop occurred,[2],≤ 30 min
CC1(C)S[C@@H]2[C@H](NC(=O)[C@H](N)c3ccccc3)C(=O)N2[C@H]1C(=O)O [ampicillin],average increase in length of E. coli cells,"[3]; treatment for 30 minutes, strain EC103",4 fold
same,dependence of the amdinocillin effect on the antibiotic concentration,[1],independent of the antibiotic concentration
same,differentiation of antibiotic-susceptible from antibiotic-resistant bacteria on addition of amdinocillin to the assay,[1],enables rapid differentiation
O=C(N[C@H](CO)[C@H](O)c1ccc([N+](=O)[O-])cc1)C(Cl)Cl [chloramphenicol],effect on mature rRNA level,[4],decrease
same,effect on pre-rRNA level,[4],selective increase
CO/N=C(\C(=O)N[C@@H]1C(=O)N2C(C(=O)O)=C(CSc3nc(=O)c(=O)[nH]n3C)CS[C@H]12)c1csc(N)n1 [ceftriaxone],how much faster effects on mature rRNA and pre-rRNA occurred with amdinocillin than without,"[1]; ceftriaxone (8 pg/ml), amdinocillin 1 μg/ml, strain EC103",60 min
CC1(C)S[C@@H]2[C@H](/N=C/N3CCCCCC3)C(=O)N2[C@H]1C(=O)O [amdinocillin],synergy between amdinocillin and the antibiotics tested,"[5]; ampicillin, cefazolin, imipenem discs, 20 hours at 37° C.",Synergy was not observed
same,effect of amdinocillin on susceptibility of bacteria to beta-lactam antibiotics,[5]; disc diffusion,did not increase the susceptibility
same,effect on filamentation caused by beta-lactam antibiotics,[3],prevents filamentation
same,effect on ampicillin-induced increase in cell length,"[3]; ampicillin plus amdinocillin, 30 minutes, strain EC103",partially blocked
same,effect of amdinocillin alone on rRNA or pre-rRNA levels,[1]; amdinocillin alone,no effect
same,effect of amdinocillin on recognition of ampicillin susceptibility,"[1]; ampicillin 16 μg/ml, amdinocillin 1 μg/ml, strain EC135",enabled early recognition of ampicillin susceptibility
same,effect of amdinocillin on recognition of cefazolin susceptibility,"[1]; cefazolin 4 μg/ml, amdinocillin 1 μg/ml, strain EC103",enabled early recognition of cefazolin-susceptibility
same,effect of amdinocillin on pre-RNA levels,"[1]; cefazolin 32 μg/ml, amdinocillin 1 μg/ml, strain EC103",no effect
gentamicin,effect on mature rRNA level,[4],decrease
same,effect on pre-rRNA level,[4],without affecting
CO/N=C(\C(=O)N[C@@H]1C(=O)N2C(C(=O)O)=C(COC(C)=O)CS[C@H]12)c1csc(N)n1 [cefotaxime],differentiation of antibiotic-susceptible from antibiotic-resistant bacteria on addition of amdinocillin to the assay,[1],enables rapid differentiation
CCN1CCN(C(=O)N[C@@H](C(=O)N[C@@H]2C(=O)N3[C@@H]2SC(C)(C)[C@@H]3C(=O)O)c2ccccc2)C(=O)C1=O [piperacillin],differentiation of antibiotic-susceptible from antibiotic-resistant bacteria on addition of amdinocillin to the assay,[1],enables rapid differentiation
